{"source": "paper PMC9851200", "about": "“Multiparameter phenotypic screening for endogenous TFEB and TFE3 translocation identifies novel chemical series modulating lysosome function” (Autophagy, 2022)", "type_in_all_cases": "binding", "key": {"[1]": {"target": "kinases (KINOMEscan panel) (Homo sapiens, UniProt Q9BYT3)", "sequence (Q9BYT3 whole entry)": "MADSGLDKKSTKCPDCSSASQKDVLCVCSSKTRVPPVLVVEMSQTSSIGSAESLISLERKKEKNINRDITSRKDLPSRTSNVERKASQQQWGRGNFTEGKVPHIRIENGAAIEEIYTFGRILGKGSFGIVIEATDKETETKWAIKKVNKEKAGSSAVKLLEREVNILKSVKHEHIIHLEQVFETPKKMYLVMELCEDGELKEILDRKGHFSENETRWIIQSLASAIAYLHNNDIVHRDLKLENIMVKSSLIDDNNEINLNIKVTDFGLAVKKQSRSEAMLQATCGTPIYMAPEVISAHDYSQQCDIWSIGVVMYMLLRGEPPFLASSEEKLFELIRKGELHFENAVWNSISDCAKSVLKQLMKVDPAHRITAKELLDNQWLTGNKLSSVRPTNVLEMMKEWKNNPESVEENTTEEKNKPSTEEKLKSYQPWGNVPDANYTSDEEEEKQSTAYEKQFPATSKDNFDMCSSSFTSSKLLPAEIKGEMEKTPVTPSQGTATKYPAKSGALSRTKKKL", "details": "kinase STK33; NEW KINOMEscan"}, "[2]": {"target": "kinases (KINOMEscan panel) (Homo sapiens, UniProt Q04912)", "details": "MST1R; NEW KINOMEscan"}, "[3]": {"target": "kinases (KINOMEscan panel) (Homo sapiens, UniProt P07949, V804M)", "sequence (P07949 29-1114 V804M)": "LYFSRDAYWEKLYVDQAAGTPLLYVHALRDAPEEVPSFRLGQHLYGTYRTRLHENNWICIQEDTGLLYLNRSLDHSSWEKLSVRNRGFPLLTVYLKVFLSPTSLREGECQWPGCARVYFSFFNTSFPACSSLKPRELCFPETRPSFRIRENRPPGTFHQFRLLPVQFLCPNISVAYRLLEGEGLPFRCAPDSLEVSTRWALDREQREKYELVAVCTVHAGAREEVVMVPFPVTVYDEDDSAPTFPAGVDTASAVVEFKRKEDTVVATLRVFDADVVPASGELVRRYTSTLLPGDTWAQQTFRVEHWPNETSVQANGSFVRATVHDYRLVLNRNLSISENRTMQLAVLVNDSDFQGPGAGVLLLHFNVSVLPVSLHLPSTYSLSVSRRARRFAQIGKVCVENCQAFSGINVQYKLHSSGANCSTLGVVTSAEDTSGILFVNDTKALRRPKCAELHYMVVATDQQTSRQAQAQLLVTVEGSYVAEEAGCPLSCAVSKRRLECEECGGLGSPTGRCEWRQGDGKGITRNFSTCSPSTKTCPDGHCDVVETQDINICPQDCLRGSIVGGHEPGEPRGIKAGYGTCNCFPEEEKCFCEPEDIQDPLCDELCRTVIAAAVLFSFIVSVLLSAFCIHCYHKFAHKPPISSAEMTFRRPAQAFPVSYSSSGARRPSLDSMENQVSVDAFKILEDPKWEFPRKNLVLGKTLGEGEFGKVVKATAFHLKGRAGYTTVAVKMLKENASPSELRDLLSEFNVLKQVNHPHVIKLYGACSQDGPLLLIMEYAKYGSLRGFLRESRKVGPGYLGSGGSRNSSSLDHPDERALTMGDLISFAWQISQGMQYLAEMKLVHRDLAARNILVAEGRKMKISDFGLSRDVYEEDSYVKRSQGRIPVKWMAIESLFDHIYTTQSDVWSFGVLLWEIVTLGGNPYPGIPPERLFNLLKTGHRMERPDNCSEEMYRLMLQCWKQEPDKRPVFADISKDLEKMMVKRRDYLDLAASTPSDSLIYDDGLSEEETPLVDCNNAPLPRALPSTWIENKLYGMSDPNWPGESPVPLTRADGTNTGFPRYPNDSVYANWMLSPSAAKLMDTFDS", "details": "kinase RET(V804M); NEW KINOMEscan"}, "[4]": {"target": "kinases (KINOMEscan panel) (Homo sapiens, UniProt P17612)", "details": "kinase PRKACA; NEW KINOMEscan"}, "[5]": {"target": "kinases (KINOMEscan panel) (Homo sapiens, UniProt O94921)", "sequence (O94921 whole entry)": "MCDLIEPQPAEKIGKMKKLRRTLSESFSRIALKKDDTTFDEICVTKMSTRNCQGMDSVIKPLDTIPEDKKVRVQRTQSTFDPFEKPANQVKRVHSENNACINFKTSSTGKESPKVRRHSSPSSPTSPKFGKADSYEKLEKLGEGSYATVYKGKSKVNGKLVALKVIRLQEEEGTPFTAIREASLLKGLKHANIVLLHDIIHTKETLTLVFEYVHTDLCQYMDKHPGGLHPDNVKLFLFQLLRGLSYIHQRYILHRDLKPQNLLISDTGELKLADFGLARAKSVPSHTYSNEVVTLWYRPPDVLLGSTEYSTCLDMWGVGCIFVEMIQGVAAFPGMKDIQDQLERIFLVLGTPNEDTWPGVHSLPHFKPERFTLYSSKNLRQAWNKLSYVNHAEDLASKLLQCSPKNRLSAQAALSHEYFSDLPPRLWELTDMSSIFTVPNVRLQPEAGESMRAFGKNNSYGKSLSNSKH", "details": "NEW KINOMEscan"}, "[6]": {"target": "T1, kinases (KINOMEscan panel) (Homo sapiens, UniProt Q9Y2U5)", "T1 sequence (Q9Y2U5 1-619)": "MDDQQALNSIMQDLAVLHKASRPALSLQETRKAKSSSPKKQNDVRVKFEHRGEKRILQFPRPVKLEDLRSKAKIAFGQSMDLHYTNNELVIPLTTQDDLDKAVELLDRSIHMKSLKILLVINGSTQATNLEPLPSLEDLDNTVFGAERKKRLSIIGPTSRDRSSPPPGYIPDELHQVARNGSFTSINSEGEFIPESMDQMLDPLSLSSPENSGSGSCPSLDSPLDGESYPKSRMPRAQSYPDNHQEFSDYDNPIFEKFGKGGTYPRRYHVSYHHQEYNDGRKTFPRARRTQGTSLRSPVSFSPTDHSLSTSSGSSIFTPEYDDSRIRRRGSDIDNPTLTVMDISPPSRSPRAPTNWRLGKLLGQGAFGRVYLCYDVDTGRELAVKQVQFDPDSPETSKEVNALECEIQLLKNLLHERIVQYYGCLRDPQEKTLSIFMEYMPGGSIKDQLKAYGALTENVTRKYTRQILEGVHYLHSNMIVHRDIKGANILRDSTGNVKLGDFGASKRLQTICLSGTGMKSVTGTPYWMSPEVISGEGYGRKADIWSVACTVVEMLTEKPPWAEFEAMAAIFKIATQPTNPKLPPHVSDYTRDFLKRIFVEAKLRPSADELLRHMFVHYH", "details": "MAP3K2; NEW KINOMEscan"}, "[7]": {"target": "kinases (KINOMEscan panel) (Homo sapiens, UniProt Q9Y6M4)", "sequence (Q9Y6M4 whole entry)": "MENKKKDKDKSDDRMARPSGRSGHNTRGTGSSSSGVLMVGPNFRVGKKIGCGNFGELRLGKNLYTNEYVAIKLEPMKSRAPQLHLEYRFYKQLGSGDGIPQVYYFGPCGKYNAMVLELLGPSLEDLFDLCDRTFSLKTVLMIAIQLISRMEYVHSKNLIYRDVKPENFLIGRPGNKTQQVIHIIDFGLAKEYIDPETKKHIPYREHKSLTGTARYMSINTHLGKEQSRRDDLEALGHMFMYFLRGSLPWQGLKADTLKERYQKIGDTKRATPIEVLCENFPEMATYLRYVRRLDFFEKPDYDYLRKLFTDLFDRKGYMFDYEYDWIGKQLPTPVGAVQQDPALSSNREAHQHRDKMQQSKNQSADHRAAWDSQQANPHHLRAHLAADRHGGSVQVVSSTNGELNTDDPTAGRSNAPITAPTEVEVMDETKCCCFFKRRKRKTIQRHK", "details": "CSNK1G3; NEW KINOMEscan"}, "[8]": {"target": "kinases (KINOMEscan panel) (Homo sapiens, UniProt P36888, N841I)", "details": "FLT3(N841I); NEW KINOMEscan"}, "[9]": {"target": "kinases (KINOMEscan panel) (Homo sapiens, UniProt Q9BYP7)", "sequence (Q9BYP7 whole entry)": "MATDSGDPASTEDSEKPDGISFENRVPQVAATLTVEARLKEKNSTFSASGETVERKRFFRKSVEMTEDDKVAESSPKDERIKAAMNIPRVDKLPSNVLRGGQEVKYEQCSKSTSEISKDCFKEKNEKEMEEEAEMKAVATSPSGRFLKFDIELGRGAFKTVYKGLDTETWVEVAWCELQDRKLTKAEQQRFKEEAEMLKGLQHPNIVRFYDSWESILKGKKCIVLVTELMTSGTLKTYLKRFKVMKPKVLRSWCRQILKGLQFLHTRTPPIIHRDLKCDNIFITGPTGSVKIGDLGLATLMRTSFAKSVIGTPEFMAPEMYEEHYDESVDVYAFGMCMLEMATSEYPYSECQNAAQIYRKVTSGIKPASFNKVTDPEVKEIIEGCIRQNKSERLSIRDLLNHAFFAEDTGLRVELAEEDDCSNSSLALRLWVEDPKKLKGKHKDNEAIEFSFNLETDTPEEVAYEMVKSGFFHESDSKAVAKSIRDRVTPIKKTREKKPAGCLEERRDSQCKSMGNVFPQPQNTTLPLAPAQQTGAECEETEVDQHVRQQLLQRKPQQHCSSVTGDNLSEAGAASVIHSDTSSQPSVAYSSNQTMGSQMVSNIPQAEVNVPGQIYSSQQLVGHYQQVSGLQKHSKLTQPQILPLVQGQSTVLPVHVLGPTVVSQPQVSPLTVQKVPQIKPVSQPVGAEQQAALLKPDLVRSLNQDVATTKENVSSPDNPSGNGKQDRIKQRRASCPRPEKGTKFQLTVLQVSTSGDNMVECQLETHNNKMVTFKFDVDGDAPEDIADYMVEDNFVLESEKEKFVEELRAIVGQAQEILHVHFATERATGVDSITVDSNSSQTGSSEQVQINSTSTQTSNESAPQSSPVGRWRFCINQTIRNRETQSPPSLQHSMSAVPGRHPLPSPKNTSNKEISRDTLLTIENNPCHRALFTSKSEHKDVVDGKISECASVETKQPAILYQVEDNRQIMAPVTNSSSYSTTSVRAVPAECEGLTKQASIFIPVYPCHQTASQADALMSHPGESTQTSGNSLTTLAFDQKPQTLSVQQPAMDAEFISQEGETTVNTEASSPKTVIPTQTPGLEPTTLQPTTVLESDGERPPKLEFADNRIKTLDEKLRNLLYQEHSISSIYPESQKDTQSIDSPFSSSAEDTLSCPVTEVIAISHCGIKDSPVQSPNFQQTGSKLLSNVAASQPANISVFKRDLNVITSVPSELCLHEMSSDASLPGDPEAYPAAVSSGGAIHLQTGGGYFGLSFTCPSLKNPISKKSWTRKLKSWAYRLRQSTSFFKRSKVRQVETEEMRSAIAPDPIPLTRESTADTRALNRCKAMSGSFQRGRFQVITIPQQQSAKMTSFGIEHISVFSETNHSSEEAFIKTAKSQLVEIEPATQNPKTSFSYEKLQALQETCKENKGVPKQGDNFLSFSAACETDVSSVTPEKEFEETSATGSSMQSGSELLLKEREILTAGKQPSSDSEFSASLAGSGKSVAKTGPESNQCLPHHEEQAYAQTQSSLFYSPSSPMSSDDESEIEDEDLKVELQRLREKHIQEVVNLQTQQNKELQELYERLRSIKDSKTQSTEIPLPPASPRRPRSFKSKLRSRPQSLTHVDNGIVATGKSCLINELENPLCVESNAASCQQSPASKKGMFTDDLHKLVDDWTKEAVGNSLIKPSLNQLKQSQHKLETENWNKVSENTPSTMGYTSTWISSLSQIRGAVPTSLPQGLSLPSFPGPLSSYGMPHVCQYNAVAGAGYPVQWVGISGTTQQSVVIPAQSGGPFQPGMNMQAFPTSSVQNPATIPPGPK", "details": "NEW KINOMEscan"}, "[10]": {"target": "T2, kinases (KINOMEscan panel) (Homo sapiens, UniProt Q59H18)", "T2 sequence (Q59H18 1-835)": "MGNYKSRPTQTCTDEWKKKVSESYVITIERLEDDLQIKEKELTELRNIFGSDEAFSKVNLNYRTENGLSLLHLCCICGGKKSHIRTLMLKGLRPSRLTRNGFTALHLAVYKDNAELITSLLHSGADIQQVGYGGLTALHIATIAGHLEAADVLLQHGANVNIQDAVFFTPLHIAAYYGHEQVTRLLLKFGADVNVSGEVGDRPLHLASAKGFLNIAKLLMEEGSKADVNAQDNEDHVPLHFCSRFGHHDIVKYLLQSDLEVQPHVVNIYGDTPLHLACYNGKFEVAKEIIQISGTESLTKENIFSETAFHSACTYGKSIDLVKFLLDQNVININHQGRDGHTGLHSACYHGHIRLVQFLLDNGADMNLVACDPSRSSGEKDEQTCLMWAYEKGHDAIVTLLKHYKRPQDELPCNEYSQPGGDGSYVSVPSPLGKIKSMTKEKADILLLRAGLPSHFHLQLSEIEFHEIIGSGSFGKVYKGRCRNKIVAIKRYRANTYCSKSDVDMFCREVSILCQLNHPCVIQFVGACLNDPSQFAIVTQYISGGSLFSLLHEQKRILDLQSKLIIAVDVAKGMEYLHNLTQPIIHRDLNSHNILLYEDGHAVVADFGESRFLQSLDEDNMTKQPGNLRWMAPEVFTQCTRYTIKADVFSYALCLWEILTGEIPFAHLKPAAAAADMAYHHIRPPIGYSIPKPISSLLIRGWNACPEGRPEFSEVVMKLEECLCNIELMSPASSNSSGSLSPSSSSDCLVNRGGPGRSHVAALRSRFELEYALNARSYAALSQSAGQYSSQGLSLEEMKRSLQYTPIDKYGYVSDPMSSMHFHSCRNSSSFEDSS", "details": "kinase TNNI3K; NEW KINOMEscan"}}}
{"smiles": "Cc1cccc(-c2nc(Nc3ccc4nn(C)cc4c3)c3ccccc3n2)n1", "note": "[NK167]", "values": [{"measurement": "KINOMEscan STK33", "setting": "[1]", "value": 0}, {"measurement": "KINOMEscan MST1R", "setting": "[2]", "value": 0}, {"measurement": "KINOMEscan RET(V804M)", "setting": "[3]", "value": 0}, {"measurement": "KINOMEscan PRKACA", "setting": "[4]", "value": 12}, {"measurement": "KINOMEscan CDK14", "setting": "[5]", "value": 17}, {"measurement": "KINOMEscan MAP3K2", "setting": "[6]", "value": 0}, {"measurement": "KINOMEscan CSNK1G3", "setting": "[7]", "value": 0}, {"measurement": "KINOMEscan FLT3(N841I)", "setting": "[8]", "value": 3}, {"measurement": "KINOMEscan WNK3", "setting": "[9]", "value": 0}, {"measurement": "KINOMEscan TNNI3K", "setting": "[10]", "value": 6}]}
{"smiles": "Cc1cccc(-c2nc(N(C)c3ccc4ncsc4c3)c3ccccc3n2)n1", "note": "[NK-161]", "values": [{"measurement": "KINOMEscan STK33", "setting": "[1]", "value": 0}, {"measurement": "KINOMEscan MST1R", "setting": "[2]", "value": 2}, {"measurement": "KINOMEscan RET(V804M)", "setting": "[3]", "value": 0}, {"measurement": "KINOMEscan PRKACA", "setting": "[4]", "value": 17}, {"measurement": "KINOMEscan CDK14", "setting": "[5]", "value": 0}, {"measurement": "KINOMEscan MAP3K2", "setting": "[6]", "value": 0}, {"measurement": "KINOMEscan CSNK1G3", "setting": "[7]", "value": 0}, {"measurement": "KINOMEscan FLT3(N841I)", "setting": "[8]", "value": 0}, {"measurement": "KINOMEscan WNK3", "setting": "[9]", "value": 28}, {"measurement": "KINOMEscan TNNI3K", "setting": "[10]", "value": 9}]}
